Data published in patent publication US6558712B1, “Delivery system for pharmaceutical, nutritional and cosmetic ingredients” (Natreon Inc., priority 2001, dated 2003).

Tests used:
[1] = system: albino rats, made partially diabetic by administering streptozotocin; assay: Hypoglycaemic action (plasma glucose level) in albino rats made partially diabetic by streptozotocin; format: in vivo, rat; conditions: Gb 1.0 mg/kg, water-suspension, p.o., n=10
From the text: (§1) Glibenclamide (Gb) is an oral hypoglycaemic agent of the sulfonyl urea group; however it is only sparingly soluble in water.

[2] = From the text: as §1
albino rats = assay: Analgetic effect in albino rats, oral; format: in vivo, rat; conditions: Ptz alone, up to 240 mg/kg, p.o.
human volunteers = assay: Analgetic effect in human volunteers, oral; format: in vivo; conditions: Ptz alone, 50 mg oral
[3] = oral; background statement, species not given; cited from earlier work
[4] = system: Streptozocin (Stz)-induced diabetic (SID) rats; assay: Plasma glucose level lowering in streptozocin-induced diabetic (SID) rats; format: in vivo, rat
Method: Streptozocin (Stz)-induced diabetic (SID) rats were used for this study. Insulin (I, 1.0 U/kg, p.o.) produed only marginal lowering (<10%) of plasma glucose level (PGL) in SID rats. […] By contrast, purified fulvic acid-insulin compositions (0.25 U/kg+10 mg/kg, p.o.) produced a 25% lowering, and Fulvic Acid-Insulin compositions (0.5 U/kg+10 mg/kg, p.o.) produced a 38% lowering of PGL in SID rates. The effect lasted for 6 hours.

Which “blood sugar lowering effect” value [1] does the source give for `COc1ccc(Cl)cc1C(=O)NCCc1ccc(S(=O)(=O)NC(=O)NC2CCCCC2)cc1` [Gb, Glibenclamide] here?
Its value is “did not exhibit any noticeable blood sugar lowering effect”.

And the solubility in water [2]?
The solubility in water was 10-12%.

Which analgetic effect (albino rats) does the source give for `CC(C)=CCN1CCC2(C)c3cc(O)ccc3CC1C2C` (stereo not shown) [Ptz, Pentazocin] here?
The analgetic effect was “does not exhibit any analgetic effect”.

And the “analgetic effect compared with codeine” value (human volunteers)?
Its value is “effective analgetic equivalent to 60 mg of codeine”.

What about the duration of analgesia (human volunteers) of the same compound?
The duration of analgesia was 120 min.

What about the “time of onset of analgesia” value (human volunteers) of the same compound?
The value was 60 min.

And the “bioavailability, administered orally” value [3]?
Its value is 30-35%.

For Insulin, which PGL lowering effect ([4]; insulin 0.25 U/kg p.o.) is on record?
Its PGL lowering effect is “did not exhibit any PGL lowering effect”.

And the PGL lowering effect ([4]; insulin 0.5 U/kg p.o.)?
The PGL lowering effect was “did not exhibit any PGL lowering effect”.

And the “lowering of plasma glucose level (PGL)” value ([4]; insulin 1.0 U/kg, p.o.)?
Its value is under 10%.
